pIC50: −log10 of the molar value.
What follows are molecules tested against T1, PARP1 (Homo sapiens, UniProt P09874) (assay: In-Cell Western Measurement of PARylation in PARP1 WT and Knockout Cells (HeLa_WT)). Settings: HeLa cells (wild-type PARP1); suppression of hydrogen peroxide-induced PARylation; 60 min pre-treatment, 10 mM H2O2 for 15 min; read-out: HeLa_WT_IC50.
T1 construct: HeLa cells (wide-type with PARP1 gene) were purchased from ATCC; host or cells: HeLa
T1 sequence (P09874 whole entry): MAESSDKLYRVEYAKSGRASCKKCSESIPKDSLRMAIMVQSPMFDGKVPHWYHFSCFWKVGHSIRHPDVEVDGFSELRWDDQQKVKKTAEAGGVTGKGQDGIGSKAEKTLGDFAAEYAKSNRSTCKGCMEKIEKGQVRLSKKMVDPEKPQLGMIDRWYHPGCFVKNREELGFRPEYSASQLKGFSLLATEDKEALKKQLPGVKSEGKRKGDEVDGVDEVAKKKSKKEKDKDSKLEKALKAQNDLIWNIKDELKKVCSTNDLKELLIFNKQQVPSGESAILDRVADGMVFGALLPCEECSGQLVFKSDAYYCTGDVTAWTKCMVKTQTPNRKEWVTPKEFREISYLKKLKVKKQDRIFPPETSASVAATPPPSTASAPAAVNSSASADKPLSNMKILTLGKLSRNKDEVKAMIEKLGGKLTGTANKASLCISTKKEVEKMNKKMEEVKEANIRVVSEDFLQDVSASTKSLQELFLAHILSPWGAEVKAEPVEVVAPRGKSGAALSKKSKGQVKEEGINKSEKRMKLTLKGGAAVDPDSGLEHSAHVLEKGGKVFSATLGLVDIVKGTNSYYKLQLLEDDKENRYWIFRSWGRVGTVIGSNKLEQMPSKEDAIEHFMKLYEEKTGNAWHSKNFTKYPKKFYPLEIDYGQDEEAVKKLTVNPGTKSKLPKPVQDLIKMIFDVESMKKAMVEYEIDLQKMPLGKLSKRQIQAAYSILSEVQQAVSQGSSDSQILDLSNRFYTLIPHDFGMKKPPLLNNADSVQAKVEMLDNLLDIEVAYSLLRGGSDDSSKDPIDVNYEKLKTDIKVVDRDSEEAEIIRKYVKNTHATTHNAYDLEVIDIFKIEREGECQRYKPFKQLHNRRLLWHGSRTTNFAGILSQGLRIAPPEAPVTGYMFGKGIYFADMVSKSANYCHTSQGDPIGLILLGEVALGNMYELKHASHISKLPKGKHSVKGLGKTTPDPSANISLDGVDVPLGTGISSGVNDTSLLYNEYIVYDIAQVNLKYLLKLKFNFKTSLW
Assay type: cell-based
Experimental: The purpose of this cell-based assay is to measure the potency and selectivity of synthesized PARP inhibitors in suppressing hydrogen peroxide-induced PARylation in cells with and without PARP1 expression. Several cell lines were used in this assay. HeLa cells (wide-type with PARP1 gene) were purchased from ATCC. The HAP1 cell line without the PARP1 gene (#HZGHC003943c006) was purchased from Horizon Discovery. Cells were cultured using complete medium containing 10% fetal bovine serum. One day before the assay, cells were seeded in 96-well plates at the density of 20,000 cells per well in 80 uL complete medium. Compounds were dissolved using DMSO and diluted to the working concentrations using complete medium. Cells were pre-treated with compounds for 60 min and then stimulated with 10 mM hydrogen peroxide for 15 min. After stimulation, cells were immediately fixed using ice-cold methanol for 20 min. After fixation, cells were washed using 1×PBST buffer for 3 times, 5 min each time, to eliminate residual methanol. Cells were blocked for 1 h at room temperature in blocking buffer (10% goat serum, 1% BSA, 0.1% Triton X-100 in PBST). Primary antibody was diluted in blocking buffer at 50 uL per well. Cells were incubated with the primary antibody (Adipogen, AG-20T-0001-M001, 1:300) at 4° C. for 18 h. The wells were then washed using 1×PBST for 3 times, 5 min each time. IRDye® 680RD Goat anti-Mouse IgG (H+L) secondary antibody was diluted at 1/1000 using the diluent buffer and added at 50 uL per well. Secondary antibody incubation was for 1 h at room temperature. Cells were then washed using 1×PBST for 3 times, 5 min each time. The signal was detected and analyzed using LI-COR Odyssey DLx Imaging system. Data were collected and further processed using GraphPad Prism for IC50 estimation.
`CNC(=O)c1ccc(N2CCN(Cc3cc4nn5c6c4c(c3F)NC(=O)N6CCC5)CC2)c(C)n1` [Compound 1, 5-(4-((7-Fluoro-9-oxo-2,3,8,9-tetrahydro-1H-3a,4,8,9a-tetraazacyclopenta[def]phenanthren-6-yl)methyl)piperazin-1-yl)-N,6-dimethylpicolinamide] was tested, and the pIC50 was 7.00 to 8.00.
For `Cc1nc(C(=O)NC2CC2)ccc1N1CCN(Cc2cc3nn4c5c3c(c2F)NC(=O)N5CCC4)CC1` [Compound 2, N-Cyclopropyl-5-(4-((7-fluoro-9-oxo-2,3,8,9-tetrahydro-1H-3a,4,8,9a-tetraazacyclopenta[def]phenanthren-6-yl)methyl)piperazin-1-yl)-6-methylpicolinamide], the pIC50 was 7.00 to 8.00.
In the case of `CNC(=O)c1ccc(N2CCN(Cc3cc4ncc5c6c4c(c3F)NC(=O)N6CCO5)CC2)c(C)n1` [Compound 3, 5-(4-((6-Fluoro-4-oxo-2,3,4,5-tetrahydro-1-oxa-3a,5,9-triazapyren-7-yl)methyl)piperazin-1-yl)-N,6-dimethylpicolinamide], the pIC50 was ≥ 8.00.
For `Cc1nc(C(=O)NC2CC2)ccc1N1CCN(Cc2cc3ncc4c5c3c(c2F)NC(=O)N5CCO4)CC1` [Compound 4, N-Cyclopropyl-5-(4-((6-fluoro-4-oxo-2,3,4,5-tetrahydro-1-oxa-3a,5,9-triazapyren-7-yl)methyl)piperazin-1-yl)-6-methylpicolinamide], the pIC50 was ≥ 8.00.
`CNC(=O)c1ccc(N2CCN(Cc3cc4ncc5c6c4c(c3F)NC(=O)N6CCC5)CC2)c(C)n1` [Compound 5, 5-(4-((7-Fluoro-5-oxo-2,3,5,6-tetrahydro-1H-[1,6]naphthyridino[1,8,7-cde]quinazolin-8-yl)methyl)piperazin-1-yl)-N,6-dimethylpicolinamide] was tested, and the pIC50 was ≥ 8.00.
`Cc1nc(C(=O)NC2CC2)ccc1N1CCN(Cc2cc3ncc4c5c3c(c2F)NC(=O)N5CCC4)CC1` [Compound 6, N-Cyclopropyl-5-(4-((7-fluoro-5-oxo-2,3,5,6-tetrahydro-1H-[1,6]naphthyridino[1,8,7-cde]quinazolin-8-yl)methyl)piperazin-1-yl)-6-methylpicolinamide] was tested, and the pIC50 was ≥ 8.00.
In the case of `CCN1C(=O)Nc2c(F)c(CN3CCN(c4ccc(C(=O)NCCO)nc4C)CC3)cc3ncnc1c23` [Compound 7, 5-(4-((3-Ethyl-9-fluoro-2-oxo-2,3-dihydro-1H-pyrimido[4,5,6-de]quinazolin-8-yl)methyl)piperazin-1-yl)-N-(2-hydroxyethyl)-6-methylpicolinamide], the pIC50 was ≥ 8.00.
For `CCN1C(=O)Nc2c(F)c(CN3CCN(c4ccc(C(=O)NCCC#N)nc4C)CC3)cc3ncnc1c23` [Compound 8, N-(2-cyanoethyl)-5-(4-((3-ethyl-9-fluoro-2-oxo-2,3-dihydro-1H-pyrimido[4,5,6-de]quinazolin-8-yl)methyl)piperazin-1-yl)-6-methylpicolinamide], the pIC50 was ≥ 8.00.
For `CCN1C(=O)Nc2c(F)c(CN3CCN(c4ccc(C(=O)NCC#N)nc4C)CC3)cc3ncnc1c23` [Compound 9, N-(cyanomethyl)-5-(4-((3-ethyl-9-fluoro-2-oxo-2,3-dihydro-1H-pyrimido[4,5,6-de]quinazolin-8-yl)methyl)piperazin-1-yl)-6-methylpicolinamide], the pIC50 was ≥ 8.00.
In the case of `CCN1C(=O)Nc2c(F)c(CN3CCN(c4ccc(C(=O)N[C@H]5C[C@H](O)C5)nc4C)CC3)cc3ncnc1c23` [Compound 10, 5-(4-((3-Ethyl-9-fluoro-2-oxo-2,3-dihydro-1H-pyrimido[4,5,6-de]quinazolin-8-yl)methyl)piperazin-1-yl)-N-((1r,3r)-3-hydroxycyclobutyl)-6-methylpicolinamide], the pIC50 was ≥ 8.00.
For `CCN1C(=O)Nc2cc(CN3CCN(c4ccc(C(=O)NCCO)nc4C)CC3)cc3ncnc1c23` [Compound 13, 5-(4-((3-Ethyl-2-oxo-2,3-dihydro-1H-pyrimido[4,5,6-de]quinazolin-8-yl)methyl)piperazin-1-yl)-N-(2-hydroxyethyl)-6-methylpicolinamide], the pIC50 was ≥ 8.00.
In the case of `CCN1C(=O)Nc2cc(CN3CCN(c4ccc(C(=O)NCCC#N)nc4C)CC3)cc3ncnc1c23` [Compound 14, N-(2-cyanoethyl)-5-(4-((3-ethyl-2-oxo-2,3-dihydro-1H-pyrimido[4,5,6-de]quinazolin-8-yl)methyl)piperazin-1-yl)-6-methylpicolinamide], the pIC50 was ≥ 8.00.
With `CCN1C(=O)Nc2cc(CN3CCN(c4ccc(C(=O)NCC#N)nc4C)CC3)cc3ncnc1c23` [Compound 15, N-(cyanomethyl)-5-(4-((3-ethyl-2-oxo-2,3-dihydro-1H-pyrimido[4,5,6-de]quinazolin-8-yl)methyl)piperazin-1-yl)-6-methylpicolinamide] the pIC50 was ≥ 8.00.
For `CCN1C(=O)Nc2cc(CN3CCN(c4ccc(C(=O)NC5CC5)nc4C)CC3)cc3ncnc1c23` [Compound 16, N-cyclopropyl-5-(4-((3-ethyl-2-oxo-2,3-dihydro-1H-pyrimido[4,5,6-de]quinazolin-8-yl)methyl)piperazin-1-yl)-6-methylpicolinamide], the pIC50 was ≥ 8.00.
`CCN1C(=O)Nc2cc(CN3CCN(c4ccc(C(=O)NC5(C#N)CC5)nc4C)CC3)cc3ncnc1c23` [Compound 17, N-(1-cyanocyclopropyl)-5-(4-((3-ethyl-2-oxo-2,3-dihydro-1H-pyrimido[4,5,6-de]quinazolin-8-yl)methyl)piperazin-1-yl)-6-methylpicolinamide] was tested, and the pIC50 was ≥ 8.00.
For `CCN1C(=O)Nc2cc(CN3CCN(c4ccc(C(=O)NC5CCC5)nc4C)CC3)cc3ncnc1c23` [Compound 18, N-cyclobutyl-5-(4-((3-ethyl-2-oxo-2,3-dihydro-1H-pyrimido[4,5,6-de]quinazolin-8-yl)methyl)piperazin-1-yl)-6-methylpicolinamide], the pIC50 was ≥ 8.00.
For `CCN1C(=O)Nc2cc(CN3CCN(c4ccc(C(=O)N[C@H]5C[C@@H](O)C5)nc4C)CC3)cc3ncnc1c23` [Compound 19, 5-(4-((3-ethyl-2-oxo-2,3-dihydro-1H-pyrimido[4,5,6-de]quinazolin-8-yl)methyl)piperazin-1-yl)-N-((1s,3s)-3-hydroxycyclobutyl)-6-methylpicolinamide], the pIC50 was ≥ 8.00.
With `CCN1C(=O)Nc2cc(CN3CCN(c4ccc(C(=O)N[C@H]5C[C@H](O)C5)nc4C)CC3)cc3ncnc1c23` [Compound 20, 5-(4-((3-ethyl-2-oxo-2,3-dihydro-1H-pyrimido[4,5,6-de]quinazolin-8-yl)methyl)piperazin-1-yl)-N-((1r,3r)-3-hydroxycyclobutyl)-6-methylpicolinamide] the pIC50 was ≥ 8.00.
In the case of `CCN1C(=O)Nc2cc(CN3CCN(c4ccc(C(=O)N[C@H]5[C@@H]6COC[C@@H]65)nc4C)CC3)cc3ncnc1c23` [Compound 21, N-((1R,5S,6r)-3-oxabicyclo[3.1.0]hexan-6-yl)-5-(4-((3-ethyl-2-oxo-2,3-dihydro-1H-pyrimido[4,5,6-de]quinazolin-8-yl)methyl)piperazin-1-yl)-6-methylpicolinamide], the pIC50 was ≥ 8.00.
With `CCN1C(=O)Nc2cc(CN3CCN(c4ccc(C(=O)N[C@H]5C[C@H](C#N)C5)nc4C)CC3)cc3ncnc1c23` [Compound 24, N-((1r,3r)-3-cyanocyclobutyl)-5-(4-((3-ethyl-2-oxo-2,3-dihydro-1H-pyrimido[4,5,6-de]quinazolin-8-yl)methyl)piperazin-1-yl)-6-methylpicolinamide] the pIC50 was ≥ 8.00.
With `CCN1C(=O)Nc2cc(CN3CCN(c4ccc(C(=O)N[C@H]5C[C@@H](C#N)C5)nc4C)CC3)cc3ncnc1c23` [Compound 25, N-((1s,3s)-3-cyanocyclobutyl)-5-(4-((3-ethyl-2-oxo-2,3-dihydro-1H-pyrimido[4,5,6-de]quinazolin-8-yl)methyl)piperazin-1-yl)-6-methylpicolinamide] the pIC50 was ≥ 8.00.
For `CCN1C(=O)Nc2cc(CN3CCN(c4ccc(C(=O)NC5(CC#N)CC5)nc4C)CC3)cc3ncnc1c23` [Compound 26, N-(1-(cyanomethyl)cyclopropyl)-5-(4-((3-ethyl-2-oxo-2,3-dihydro-1H-pyrimido[4,5,6-de]quinazolin-8-yl)methyl)piperazin-1-yl)-6-methylpicolinamide], the pIC50 was ≥ 8.00.
